Data from patent US12655116B2, “Substituted isophthalic acid diamides” (Bayer Aktiengesellschaft, priority 2020, dated 2026).

Experiments:
[1] = tested on: PHBPU; test: Post-emergence herbicidal action against PHBPU; format: in vivo, Pharbitis purpurea
In short: (§1)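 Herbicidal action is a visual percentage rating (0% = as untreated control, 100% = plants dead) made roughly 3 weeks after treatment. Plants were grown in sandy loam in the greenhouse and treated at the one-leaf stage, 2 to 3 weeks post-sowing. Treatment was a foliar spray of wettable-powder or emulsion-concentrate formulations at 600 to 800 l/ha water plus 0.2% wetting agent.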

[2] = tested on: AMARE; test: Post-emergence herbicidal action against AMARE; format: in vivo, Amaranthus retroflexus; conditions: 20 g/ha, visual assessment about 3 weeks after treatment, 100% = plants have died, 0% = like control plants
In short: as §1

[3] = tested on: VERPE; test: Pre-emergence herbicidal action against VERPE; format: in vivo, Veronica persica
In short: (§2)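 Sandy loam pots, seeds covered with soil, then surface-treated with WP or EC formulations at 600–800 l/ha water plus 0.2% wetting agent. Greenhouse, 3 weeks. Percent damage vs untreated controls.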

[4] = tested on: SETVI; test: Post-emergence herbicidal action against SETVI; format: in vivo, Setaria viridis; conditions: dosage 20 g/ha
In short: as §1

[5] = tested on: VIOTR; test: Post-emergence herbicidal action against VIOTR; format: in vivo, Viola tricolor; conditions: 20 g/ha
In short: as §1

[6] = tested on: ECHCG; test: Pre-emergence herbicidal action against ECHCG; format: in vivo, Echinochloa crus-galli; conditions: 80 g/ha
In short: as §2

[7] = tested on: ABUTH; test: Post-emergence herbicidal action against ABUTH; format: in vivo, Abutilon theophrasti; conditions: dosage 20 g/ha, visual assessment about 3 weeks after treatment vs untreated controls
In short: as §1

[8] = tested on: MATIN; test: Post-emergence herbicidal action against MATIN; format: in vivo, Matricaria inodora; conditions: dosage 20 g/ha
In short: as §1

[9] = tested on: ABUTH; test: Pre-emergence herbicidal action against ABUTH; format: in vivo, Abutilon theophrasti
In short: as §2

[10] = tested on: MATIN; test: Pre-emergence herbicidal action against MATIN; format: in vivo, Matricaria inodora
In short: as §2

[11] = tested on: VERPE; test: Post-emergence herbicidal action against VERPE; format: in vivo, Veronica persica; conditions: 20 g/ha
In short: as §1

[12] = tested on: PHBPU; test: Pre-emergence herbicidal action against PHBPU; format: in vivo, Pharbitis purpurea; conditions: dosage 80 g/ha
In short: as §2

[13] = tested on: POLCO; test: Pre-emergence herbicidal action against POLCO; format: in vivo, Polygonum convolvulus
In short: as §2

[14] = tested on: VIOTR; test: Pre-emergence herbicidal action against VIOTR; format: in vivo, Viola tricolor
In short: as §2

[15] = tested on: ALOMY; test: Pre-emergence herbicidal action against ALOMY; format: in vivo, Alopecurus myosuroides
In short: as §2

[16] = tested on: SETVI; test: Pre-emergence herbicidal action against SETVI; format: in vivo, Setaria viridis; conditions: dosage 80 g/ha
In short: as §2

[17] = tested on: AMARE; test: Pre-emergence herbicidal action against AMARE; format: in vivo, Amaranthus retroflexus
In short: as §2

[18] = tested on: ECHCG; test: Post-emergence herbicidal action against ECHCG; format: in vivo, Echinochloa crus-galli
In short: as §1

[19] = tested on: AVEFA; test: Pre-emergence herbicidal action against AVEFA; format: in vivo, Avena fatua
In short: as §2

[20] = tested on: ALOMY; test: Post-emergence herbicidal action against ALOMY; format: in vivo, Alopecurus myosuroides; conditions: dosage 20 g/ha, visual assessment about 3 weeks after treatment vs untreated controls
In short: as §1

[21] = 80 g/ha, scored visually after 3 weeks vs untreated controls (100% = plants have died, 0% = like control plants)
[22] = 20 g/ha, scored visually after 3 weeks, 100% = plants have died, 0% = like control plants

CCc1c(C(=O)Nc2nnnn2C)ccc(C(F)(F)F)c1C(=O)NCC1CC1 [Example 1-274]
Post-emergence action against PHBPU in % ([1]; dosage 5 g/ha): 80% | Post-emergence action against PHBPU in % ([1]; dosage 20 g/ha): 90% | Post-emergence action at 20 g/ha against AMARE in % [2]: 100% | Pre-emergence action against VERPE in % ([3]; dosage 20 g/ha): 90% | Pre-emergence action against VERPE in % ([3]; dosage 80 g/ha): 90% | Post-emergence action against SETVI in % [4]: 90% | Post-emergence action against VIOTR in % [5]: 80% | Pre-emergence action against ECHCG in % [6]: 100% | Post-emergence action against ABUTH in % [7]: 80% | Post-emergence action against MATIN in % [8]: 80% | Pre-emergence action against ABUTH (herbicidal activity) [9, 21]: 100% | Pre-emergence action against ABUTH (herbicidal activity in percent) ([9]; dosage 20 g/ha, scored visually after 3 weeks vs untreated controls, 100% = plants have died, 0% = like control plants): 100% | Pre-emergence action against MATIN in % ([10]; dosage 20 g/ha): 100% | Pre-emergence action against MATIN in % ([10]; dosage 80 g/ha): 100% | Post-emergence action against VERPE in % [11]: 80% | Pre-emergence action against PHBPU in % [12]: 90% | Pre-emergence action against POLCO in % ([13]; dosage 20 g/ha): 80% | Pre-emergence action against POLCO in % ([13]; dosage 80 g/ha): 90% | Pre-emergence action against VIOTR in % ([14]; dosage 20 g/ha): 90% | Pre-emergence action against VIOTR in % ([14]; dosage 80 g/ha): 90% | Pre-emergence action against ALOMY [15, 22]: 80% | Pre-emergence action against ALOMY (herbicidal activity) ([15]; 80 g/ha, pre-emergence, scored visually after 3 weeks vs untreated controls (100% = plants have died, 0% = like control plants)): 90% | Pre-emergence action against SETVI in % [16]: 100% | Pre-emergence action against AMARE in % ([17]; 20 g/ha, scored visually after 3 weeks vs untreated controls, 100% = plants have died, 0% = like control plants): 100% | Pre-emergence action against AMARE in % [17, 21]: 100% | Post-emergence action against ECHCG in % ([18]; dosage 5 g/ha): 80% | Post-emergence action against ECHCG in % ([18]; dosage 20 g/ha): 90% | Pre-emergence action against AVEFA [19, 22]: 80% | Pre-emergence action against AVEFA in % ([19]; 80 g/ha, pre-emergence): 90% | Post-emergence action against ALOMY in % [20]: 80%
